Measured values from patent US8247579B2, “Spirocyclic tetronic acid derivatives” (Bayer Cropscience AG, priority 2007, dated 2012).

What was measured:
[1] = system: mixed thrips population (Frankliniella occidentalis); assay: Frankliniella occidentalis (FRANOC spray treatment); assay type: in vivo; settings: bean leaf disks
Protocol: Frankliniella occidentalis (FRANOC Spray Treatment)
If addition of ammonium salts is required, these are added by pipette in a concentration of 1000 ppm after dilution of the respective finished solution of the preparation.

[2] = Determination of the logP values by HPLC (EEC Directive 79/831 Annex V.A8); assay type: physicochemical; settings: reversed-phase C18 HPLC column, reversed-phase C18, 43° C., acidic range (pH 2.3)
Protocol: Determination of the LogP Values The logP values given in the table were determined in accordance with EEC Directive 79/831 Annex V .A8 by HPLC (High Performance Liquid Chromatography) on a reversed-phase column (C18). Temperature: 43° C. Mobile phases for the determination in the acidic range (pH 2.3): 0.1% aqueous phosphoric acid, acetonitrile; linear gradient from 10% acetonitrile to 90% acetonitrile The calibration was carried out using unbranched alkan-2-ones (having 3 to 16 carbon atoms) with known logP values (determination of the logP values by the retention times using linear interpolation between two successive alkanones).

[3] = system: larvae of the mustard beetle (Phaedon cochleariae); assay: Phaedon test (PHAECO spray treatment); settings: application rate of 100 g/ha, Chinese cabbage discs
[4] = system: Tetranychus urticae, resistant; assay: Tetranychus urticae (TETRUR RAUS) spray test, resistant mites on bush bean plants; assay type: in vivo; settings: concentration of 5 ppm, spraying
Protocol: Tetranychus urticae (TETRUR RAUS)
Bush bean plants (Phaseolus vulgaris) infested with a mixed population of resistant greenhouse red spider mites (Tetranychus urticae, resistant) are treated by spraying with the active compound preparation of the desired concentration.
(§1) After the desired period of time, the kill in % is determined.

[5] = system: greenhouse red spider mite (Tetranychus urticae sensitive); assay: Tetranychus test, OP-resistant/dip treatment (TETRUR); assay type: in vivo; settings: dip
Protocol: Tetranychus Test, OP-Resistant/Dip Treatment (TETRUR)
(§2) If addition of ammonium salts, penetrants or ammonium salts and penetrants is required, these are added by pipette in a concentration of 1000 ppm after dilution of the respective finished solution of the preparation.

[6] = system: Green peach aphid (Myzus persicae); assay: Myzus persicae test (MYZUPE), dip treatment of cabbage leaves; assay type: in vivo; settings: 100 ppm
Protocol: Myzus persicae Test (MYZUPE)
as §2
Cabbage leaves (Brassica oleracea) which are heavily infested by the Green peach aphid (Myzus persicae) are treated by being dipped into the active compound preparation of the desired concentration.
as §1

SMILES	chromatographic logP [2]	effect in % (thrips killed) ([1]; application rate of 500 g/ha) [%]	effect in % (thrips killed) ([1]; application rate of 100 g/ha) [%]	effect in % (beetle larvae killed) [3] [%]	kill in % [4] [%]	TETRUR % 7 d (effect in %) ([5]; 0.78125 ppm) [%]	TETRUR % 7 d (effect in %) ([5]; 1.5625 ppm) [%]	TETRUR % 7 d (effect in %) ([5]; 3.125 ppm) [%]	MYZUPE % 6 d (kill in %) [6] [%]
CCC(C)(C)CC(=O)OC1=C(c2c(C)cc(C)cc2C)C(=O)OC12CCCC2 [Example I-3]	–	–	–	–	97	–	–	–	–
COC(C)(C)CC(=O)OC1=C(c2c(C)cc(C)cc2C)C(=O)OC12CCCC2 [Example I-5]	4.45	–	–	–	–	30	50	90	55
Cc1cc(C)c(C2=C(OC(=O)CC(C)(C)C)C3(CCCC3)OC2=O)c(C)c1 [spiromesifen, reference compound]	–	0	0	33	30	0	30	50	30

Second part, led by results:

chromatographic logP [2]	SMILES	effect in % (thrips killed) ([1]; application rate of 500 g/ha) [%]	effect in % (thrips killed) ([1]; application rate of 100 g/ha) [%]	effect in % (beetle larvae killed) [3] [%]	kill in % [4] [%]	TETRUR % 7 d (effect in %) ([5]; 0.78125 ppm) [%]	TETRUR % 7 d (effect in %) ([5]; 1.5625 ppm) [%]	TETRUR % 7 d (effect in %) ([5]; 3.125 ppm) [%]	MYZUPE % 6 d (kill in %) [6] [%]
6.94	Cc1cc(C)c(C2=C(OC(=O)CC34CC5CC(CC(C5)C3)C4)C3(CCCC3)OC2=O)c(C)c1 [Example I-1]	80	–	–	–	–	–	–	–
3.85	Cc1cc(C)c(C2=C(OC(=O)CC3(C)OCCO3)C3(CCCC3)OC2=O)c(C)c1 [Example I-2]	–	63	67	–	–	–	–	–
